Tests used:
Design in all cases: scale not given: the % may be the effect or the level left
[1] = target: Tyrosine-protein kinase JAK1 (Homo sapiens) (UniProt P23458); experiment: Inhibition of DNA-tagged human JAK1 JH2 pseudokinase domain assessed as percent of control at 50000 nM by qPCR analysis relative to control
[2] = target: Interleukin-1 receptor-associated kinase 1 (Homo sapiens) (UniProt P51617); experiment: Inhibition of DNA-tagged human IRAK1 assessed as percent of control at 50000 nM by qPCR analysis relative to control
[3] = target: Cyclin-G-associated kinase (Homo sapiens) (UniProt O14976); experiment: Inhibition of DNA-tagged human GAK assessed as percent of control at 50000 nM by qPCR analysis relative to control
[4] = target: Tyrosine-protein kinase Fes/Fps (Homo sapiens) (UniProt P07332); experiment: Inhibition of DNA-tagged human FES assessed as percent of control at 50000 nM by qPCR analysis relative to control
[5] = target: Ephrin type-B receptor 2 (Homo sapiens) (UniProt P29323); experiment: Inhibition of DNA-tagged human EPHB2 assessed as percent of control at 50000 nM by qPCR analysis relative to control
[6] = target: Ephrin type-A receptor 5 (Homo sapiens) (UniProt P54756); experiment: Inhibition of DNA-tagged human EPHA5 assessed as percent of control at 50000 nM by qPCR analysis relative to control
[7] = test system: Epidermal growth factor receptor (Homo sapiens), P00533 [L861Q]; experiment: Inhibition of DNA-tagged human EGFR L861Q mutant assessed as percent of control at 50000 nM by qPCR analysis relative to control
[8] = test system: Epidermal growth factor receptor (Homo sapiens), P00533 [G719C]; experiment: Inhibition of DNA-tagged human EGFR G719C mutant assessed as percent of control at 50000 nM by qPCR analysis relative to control
[9] = target: Dual specificity tyrosine-phosphorylation-regulated kinase 2 (Homo sapiens) (UniProt Q92630); experiment: Inhibition of DNA-tagged human DYRK2 assessed as percent of control at 50000 nM by qPCR analysis relative to control
[10] = target: Casein kinase I isoform gamma-3 (Homo sapiens) (UniProt Q9Y6M4); experiment: Inhibition of DNA-tagged human CSNK1G3 assessed as percent of control at 50000 nM by qPCR analysis relative to control
[11] = target: Dual specificity protein kinase CLK1 (Homo sapiens) (UniProt P49759); experiment: Inhibition of DNA-tagged human CLK1 assessed as percent of control at 50000 nM by qPCR analysis relative to control
[12] = target: Cyclin-dependent kinase-like 1 (Homo sapiens) (UniProt Q00532); experiment: Inhibition of DNA-tagged human CDKL1 assessed as percent of control at 50000 nM by qPCR analysis relative to control
[13] = target: Cyclin-dependent kinase 11B (Homo sapiens) (UniProt P21127); experiment: Inhibition of DNA-tagged human CDC2L1 assessed as percent of control at 50000 nM by qPCR analysis relative to control
[14] = target: 5'-AMP-activated protein kinase catalytic subunit alpha-1 (Homo sapiens) (UniProt Q13131); experiment: Inhibition of DNA-tagged human AMPK-alpha1 assessed as percent of control at 50000 nM by qPCR analysis relative to control
[15] = target: Tyrosine-protein kinase ABL2 (Homo sapiens) (UniProt P42684); experiment: Inhibition of DNA-tagged human ABL2 assessed as percent of control at 50000 nM by qPCR analysis relative to control
[16] = test system: Tyrosine-protein kinase ABL1 (Homo sapiens), P00519 [Q252H]; experiment: Inhibition of DNA-tagged non-phosphorylated human ABL1 Q252H mutant assessed as percent of control at 50000 nM by qPCR analysis relative to control
[17] = test system: Tyrosine-protein kinase ABL1 (Homo sapiens), P00519 [F317I]; experiment: Inhibition of DNA-tagged phosphorylated human ABL1 F317I mutant assessed as percent of control at 50000 nM by qPCR analysis relative to control
[18] = target: Serine/threonine-protein kinase MRCK alpha (Homo sapiens) (UniProt Q5VT25); experiment: Inhibition of DNA-tagged human MRCKA assessed as percent of control at 50000 nM by qPCR analysis relative to control
[19] = target: Serine/threonine-protein kinase NIM1 (Homo sapiens) (UniProt Q8IY84); experiment: Inhibition of DNA-tagged human NIM1 assessed as percent of control at 50000 nM by qPCR analysis relative to control
[20] = target: Serine/threonine-protein kinase PAK 6 (Homo sapiens) (UniProt Q9NQU5); experiment: Inhibition of DNA-tagged human PAK6 assessed as percent of control at 50000 nM by qPCR analysis relative to control
[21] = target: Serine/threonine-protein kinase PAK 5 (Homo sapiens) (UniProt Q9P286); experiment: Inhibition of DNA-tagged human PAK7 assessed as percent of control at 50000 nM by qPCR analysis relative to control
[22] = target: Platelet-derived growth factor receptor beta (Homo sapiens) (UniProt P09619); experiment: Inhibition of DNA-tagged human PDGFRB assessed as percent of control at 50000 nM by qPCR analysis relative to control
[23] = target: Calcium-dependent protein kinase 1 (Plasmodium falciparum) (UniProt P62344); experiment: Inhibition of DNA-tagged Plasmodium falciparum CDPK1 assessed as percent of control at 50000 nM by qPCR analysis relative to control
[24] = target: Phosphatidylinositol 4-kinase beta (Homo sapiens) (UniProt Q9UBF8); experiment: Inhibition of DNA-tagged human PIK4CB assessed as percent of control at 50000 nM by qPCR analysis relative to control
[25] = target: Ribosomal protein S6 kinase alpha-1 (Homo sapiens) (UniProt Q15418); experiment: Inhibition of DNA-tagged human N-terminal RSK1 kinase domain 1 assessed as percent of control at 50000 nM by qPCR analysis relative to control
[26] = target: Serine/threonine-protein kinase Sgk3 (Homo sapiens) (UniProt Q96BR1); experiment: Inhibition of DNA-tagged human SGK3 assessed as percent of control at 50000 nM by qPCR analysis relative to control
[27] = target: Proto-oncogene tyrosine-protein kinase Src (Homo sapiens) (UniProt P12931); experiment: Inhibition of DNA-tagged human SRC assessed as percent of control at 50000 nM by qPCR analysis relative to control
[28] = target: STE20/SPS1-related proline-alanine-rich protein kinase (Homo sapiens) (UniProt Q9UEW8); experiment: Inhibition of DNA-tagged human STK39 assessed as percent of control at 50000 nM by qPCR analysis relative to control
[29] = target: TRAF2 and NCK-interacting protein kinase (Homo sapiens) (UniProt Q9UKE5); experiment: Inhibition of DNA-tagged human TNIK assessed as percent of control at 50000 nM by qPCR analysis relative to control

Sequence of Tyrosine-protein kinase ABL2 (Homo sapiens) (P42684 whole entry): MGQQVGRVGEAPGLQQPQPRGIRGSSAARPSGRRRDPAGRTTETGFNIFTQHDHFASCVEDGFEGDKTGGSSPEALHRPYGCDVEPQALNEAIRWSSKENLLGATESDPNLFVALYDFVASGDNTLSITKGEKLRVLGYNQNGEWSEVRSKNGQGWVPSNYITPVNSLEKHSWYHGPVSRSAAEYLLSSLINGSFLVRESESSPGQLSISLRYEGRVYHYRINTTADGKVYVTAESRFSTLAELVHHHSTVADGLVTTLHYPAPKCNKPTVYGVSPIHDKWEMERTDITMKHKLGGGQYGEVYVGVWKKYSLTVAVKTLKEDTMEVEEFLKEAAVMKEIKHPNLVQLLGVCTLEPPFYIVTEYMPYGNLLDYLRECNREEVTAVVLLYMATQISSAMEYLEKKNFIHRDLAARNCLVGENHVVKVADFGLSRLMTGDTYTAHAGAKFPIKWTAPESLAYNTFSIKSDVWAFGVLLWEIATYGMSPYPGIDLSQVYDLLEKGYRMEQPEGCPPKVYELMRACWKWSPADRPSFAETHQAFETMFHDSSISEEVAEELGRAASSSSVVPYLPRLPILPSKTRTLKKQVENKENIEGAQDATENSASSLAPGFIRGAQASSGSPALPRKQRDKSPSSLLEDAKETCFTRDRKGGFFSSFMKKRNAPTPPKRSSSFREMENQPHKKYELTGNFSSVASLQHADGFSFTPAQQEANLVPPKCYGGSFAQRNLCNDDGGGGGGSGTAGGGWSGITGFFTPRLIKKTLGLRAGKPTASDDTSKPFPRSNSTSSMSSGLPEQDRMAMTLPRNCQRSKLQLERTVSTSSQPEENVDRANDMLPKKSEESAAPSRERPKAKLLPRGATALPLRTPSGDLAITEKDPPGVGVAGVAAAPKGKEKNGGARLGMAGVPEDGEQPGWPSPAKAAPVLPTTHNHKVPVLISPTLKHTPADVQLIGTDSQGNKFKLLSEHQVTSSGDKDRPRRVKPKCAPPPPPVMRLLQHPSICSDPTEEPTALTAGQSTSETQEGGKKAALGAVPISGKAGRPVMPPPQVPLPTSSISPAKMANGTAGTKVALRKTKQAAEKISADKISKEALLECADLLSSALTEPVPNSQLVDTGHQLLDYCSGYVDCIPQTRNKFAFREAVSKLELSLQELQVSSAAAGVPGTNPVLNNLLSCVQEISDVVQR
Sequence of Cyclin-dependent kinase 11B (Homo sapiens) (P21127 whole entry): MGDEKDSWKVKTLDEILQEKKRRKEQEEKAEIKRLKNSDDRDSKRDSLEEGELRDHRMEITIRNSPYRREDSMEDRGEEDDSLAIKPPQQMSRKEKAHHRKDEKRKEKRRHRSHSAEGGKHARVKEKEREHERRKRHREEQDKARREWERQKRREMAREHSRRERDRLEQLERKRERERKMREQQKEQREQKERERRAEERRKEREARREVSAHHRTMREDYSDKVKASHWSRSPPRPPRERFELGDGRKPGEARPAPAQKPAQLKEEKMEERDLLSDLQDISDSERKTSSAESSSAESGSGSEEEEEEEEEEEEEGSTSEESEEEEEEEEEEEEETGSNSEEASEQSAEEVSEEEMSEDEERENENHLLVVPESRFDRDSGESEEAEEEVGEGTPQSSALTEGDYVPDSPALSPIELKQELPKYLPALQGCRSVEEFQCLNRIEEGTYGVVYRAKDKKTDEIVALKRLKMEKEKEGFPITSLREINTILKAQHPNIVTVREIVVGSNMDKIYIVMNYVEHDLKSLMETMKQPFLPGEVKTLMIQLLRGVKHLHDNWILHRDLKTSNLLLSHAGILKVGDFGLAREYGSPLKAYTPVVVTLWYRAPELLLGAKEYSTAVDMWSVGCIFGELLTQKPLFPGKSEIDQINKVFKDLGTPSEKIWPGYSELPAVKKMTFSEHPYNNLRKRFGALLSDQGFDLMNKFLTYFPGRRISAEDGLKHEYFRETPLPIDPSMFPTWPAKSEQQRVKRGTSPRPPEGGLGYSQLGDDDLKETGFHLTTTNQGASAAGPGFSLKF
Sequence of Dual specificity tyrosine-phosphorylation-regulated kinase 2 (Homo sapiens) (Q92630 whole entry, canonical isoform): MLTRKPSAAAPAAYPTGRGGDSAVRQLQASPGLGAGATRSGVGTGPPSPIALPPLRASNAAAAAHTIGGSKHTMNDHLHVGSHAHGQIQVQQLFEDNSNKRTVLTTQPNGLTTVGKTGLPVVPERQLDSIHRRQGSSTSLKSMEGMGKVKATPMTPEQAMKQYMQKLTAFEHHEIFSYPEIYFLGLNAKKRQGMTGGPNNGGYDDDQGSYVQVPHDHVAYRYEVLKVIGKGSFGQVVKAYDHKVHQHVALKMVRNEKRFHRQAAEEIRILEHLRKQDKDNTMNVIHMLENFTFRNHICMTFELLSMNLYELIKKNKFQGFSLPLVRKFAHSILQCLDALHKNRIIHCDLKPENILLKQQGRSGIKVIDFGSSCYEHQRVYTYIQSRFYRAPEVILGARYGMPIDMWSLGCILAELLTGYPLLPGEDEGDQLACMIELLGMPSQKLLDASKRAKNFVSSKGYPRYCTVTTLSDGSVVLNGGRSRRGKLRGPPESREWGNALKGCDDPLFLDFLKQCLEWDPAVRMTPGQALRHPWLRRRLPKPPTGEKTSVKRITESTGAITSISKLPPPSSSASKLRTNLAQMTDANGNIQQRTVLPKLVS
Sequence of Tyrosine-protein kinase Fes/Fps (Homo sapiens) (P07332 whole entry): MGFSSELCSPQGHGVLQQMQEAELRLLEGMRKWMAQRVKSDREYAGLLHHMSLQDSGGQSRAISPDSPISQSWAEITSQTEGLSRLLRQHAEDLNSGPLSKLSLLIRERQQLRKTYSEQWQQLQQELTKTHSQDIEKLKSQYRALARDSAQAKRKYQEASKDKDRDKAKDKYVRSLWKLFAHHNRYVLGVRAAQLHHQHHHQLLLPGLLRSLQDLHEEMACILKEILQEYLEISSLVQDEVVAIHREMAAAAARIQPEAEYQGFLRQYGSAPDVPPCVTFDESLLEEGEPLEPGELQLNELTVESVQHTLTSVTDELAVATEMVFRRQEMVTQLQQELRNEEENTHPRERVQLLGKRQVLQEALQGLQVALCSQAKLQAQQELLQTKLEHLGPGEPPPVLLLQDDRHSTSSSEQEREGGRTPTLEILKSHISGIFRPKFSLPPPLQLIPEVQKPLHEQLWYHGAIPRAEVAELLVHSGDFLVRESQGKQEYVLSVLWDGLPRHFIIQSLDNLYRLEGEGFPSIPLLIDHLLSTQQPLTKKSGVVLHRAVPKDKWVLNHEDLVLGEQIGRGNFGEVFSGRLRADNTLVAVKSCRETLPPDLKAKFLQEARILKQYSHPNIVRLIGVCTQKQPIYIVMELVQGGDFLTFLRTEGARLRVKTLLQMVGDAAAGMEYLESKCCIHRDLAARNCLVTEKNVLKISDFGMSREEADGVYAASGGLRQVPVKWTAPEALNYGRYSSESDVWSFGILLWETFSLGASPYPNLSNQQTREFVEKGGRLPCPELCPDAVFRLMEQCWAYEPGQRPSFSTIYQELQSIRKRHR
Sequence of Serine/threonine-protein kinase Sgk3 (Homo sapiens) (Q96BR1 whole entry): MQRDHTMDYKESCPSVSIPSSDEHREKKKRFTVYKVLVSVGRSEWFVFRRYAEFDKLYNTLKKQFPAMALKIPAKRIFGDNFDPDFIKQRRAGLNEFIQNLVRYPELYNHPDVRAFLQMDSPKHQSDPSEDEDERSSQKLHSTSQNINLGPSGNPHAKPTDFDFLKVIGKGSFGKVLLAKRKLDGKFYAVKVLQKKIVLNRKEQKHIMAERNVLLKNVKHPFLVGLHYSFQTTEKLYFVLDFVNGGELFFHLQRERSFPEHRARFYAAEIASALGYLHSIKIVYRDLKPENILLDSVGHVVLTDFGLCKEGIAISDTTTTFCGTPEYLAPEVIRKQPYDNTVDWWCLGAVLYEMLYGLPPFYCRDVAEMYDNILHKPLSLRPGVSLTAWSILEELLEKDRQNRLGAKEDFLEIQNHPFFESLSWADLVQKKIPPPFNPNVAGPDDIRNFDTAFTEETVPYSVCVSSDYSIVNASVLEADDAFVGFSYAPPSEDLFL
Sequence of Proto-oncogene tyrosine-protein kinase Src (Homo sapiens) (P12931 2-536 limits assumed): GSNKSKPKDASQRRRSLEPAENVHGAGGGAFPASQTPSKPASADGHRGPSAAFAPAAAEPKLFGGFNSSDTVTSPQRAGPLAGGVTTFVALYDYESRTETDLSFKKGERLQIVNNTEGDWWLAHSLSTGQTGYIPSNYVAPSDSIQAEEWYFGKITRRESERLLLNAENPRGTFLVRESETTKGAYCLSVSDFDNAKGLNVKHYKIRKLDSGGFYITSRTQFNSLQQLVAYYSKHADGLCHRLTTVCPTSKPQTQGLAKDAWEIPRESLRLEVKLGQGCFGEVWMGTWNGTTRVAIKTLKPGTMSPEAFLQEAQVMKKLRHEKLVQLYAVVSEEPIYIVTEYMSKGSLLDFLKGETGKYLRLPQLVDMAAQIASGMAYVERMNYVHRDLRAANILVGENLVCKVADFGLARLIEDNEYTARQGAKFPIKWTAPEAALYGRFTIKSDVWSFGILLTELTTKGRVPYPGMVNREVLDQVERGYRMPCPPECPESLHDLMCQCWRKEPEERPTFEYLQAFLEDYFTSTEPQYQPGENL
Sequence of Serine/threonine-protein kinase NIM1 (Homo sapiens) (Q8IY84 whole entry): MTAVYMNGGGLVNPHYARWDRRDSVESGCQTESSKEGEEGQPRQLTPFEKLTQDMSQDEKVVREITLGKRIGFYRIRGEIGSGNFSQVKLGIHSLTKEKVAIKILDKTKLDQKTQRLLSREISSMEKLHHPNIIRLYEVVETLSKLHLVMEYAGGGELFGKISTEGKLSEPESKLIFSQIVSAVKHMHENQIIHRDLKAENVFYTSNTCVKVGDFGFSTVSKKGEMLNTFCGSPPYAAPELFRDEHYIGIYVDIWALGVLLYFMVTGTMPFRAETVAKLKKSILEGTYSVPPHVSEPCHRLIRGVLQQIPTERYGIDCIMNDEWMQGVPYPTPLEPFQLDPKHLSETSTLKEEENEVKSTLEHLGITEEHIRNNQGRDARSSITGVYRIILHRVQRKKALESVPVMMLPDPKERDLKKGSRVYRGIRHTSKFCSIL

Q: CN1C(=O)/C(=C2/C(=O)Nc3ccccc32)c2ccccc21 was tested. Which Activity [1] did it give?
A: Its Activity is 100%.

Q: And the Activity [2]?
A: The Activity was 64%.

Q: And the Activity [3]?
A: Its Activity is 98%.

Q: What about the Activity [4] of the same molecule?
A: Its Activity is 95%.

Q: And the Activity [5]?
A: Its Activity is 100%.

Q: What about the Activity [6] of the same molecule?
A: Its Activity is 96%.

Q: And the Activity [7]?
A: Its Activity is 83%.

Q: And the Activity [8]?
A: The Activity was 89%.

Q: And the Activity [9]?
A: The Activity was 84%.

Q: What about the Activity [10] of the same molecule?
A: Its Activity is 90%.

Q: And the Activity [11]?
A: The Activity was 100%.

Q: What about the Activity [12] of the same molecule?
A: Its Activity is 79%.

Q: And the Activity [13]?
A: The Activity was 87%.

Q: What about the Activity [14] of the same molecule?
A: Its Activity is 100%.

Q: And the Activity [15]?
A: Its Activity is 89%.

Q: And the Activity [16]?
A: Its Activity is 100%.

Q: What about the Activity [17] of the same molecule?
A: The Activity was 100%.

Q: What about the Activity [18] of the same molecule?
A: Its Activity is 92%.

Q: What about the Activity [19] of the same molecule?
A: The Activity was 86%.

Q: And the Activity [20]?
A: The Activity was 100%.

Q: And the Activity [21]?
A: The Activity was 98%.

Q: And the Activity [22]?
A: Its Activity is 100%.

Q: What about the Activity [23] of the same molecule?
A: The Activity was 87%.

Q: And the Activity [24]?
A: Its Activity is 100%.

Q: What about the Activity [25] of the same molecule?
A: Its Activity is 96%.

Q: What about the Activity [26] of the same molecule?
A: Its Activity is 68%.

Q: What about the Activity [27] of the same molecule?
A: The Activity was 100%.

Q: And the Activity [28]?
A: Its Activity is 78%.

Q: And the Activity [29]?
A: Its Activity is 100%.

— ChEMBL document CHEMBL4804284
